Data on ten compounds can be found in patent publication US8367708B2, “Phenyl-isoxazol-3-ol derivative” (MSD K.K., priority 2006, dated 2013).

This assay concerns the target T1, human GPR120 (Homo sapiens, UniProt Q5NUL3).
T1 construct: expressed in transfected cells
T1 sequence (Q5NUL3 1-361): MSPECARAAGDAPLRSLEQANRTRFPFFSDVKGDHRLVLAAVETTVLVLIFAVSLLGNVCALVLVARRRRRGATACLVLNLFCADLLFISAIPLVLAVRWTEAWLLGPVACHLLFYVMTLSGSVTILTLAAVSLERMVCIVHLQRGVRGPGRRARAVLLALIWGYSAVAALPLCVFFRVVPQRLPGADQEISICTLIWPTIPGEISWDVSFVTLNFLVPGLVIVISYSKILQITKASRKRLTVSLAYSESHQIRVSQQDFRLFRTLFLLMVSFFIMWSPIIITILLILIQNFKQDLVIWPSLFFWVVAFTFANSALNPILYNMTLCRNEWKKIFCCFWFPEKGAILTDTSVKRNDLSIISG
Briefly: Measurement of intracellular calcium concentration (FLIPR), GPR120 agonist action. The format is cell-based. To be noted: human GPR120 expression CHO cells, Fluo-4 AM, read-out: IC50 (GPR120 agonist action).

As for `Oc1cc(-c2ccc(OCc3cccc(Oc4ccccc4)n3)cc2)on1` [Example 3, 5-(4-((6-phenoxypyridin-2-yl)methoxy)phenyl)isoxazol-3-ol], the EC50 amounted to 180 nM.
Turning to `Oc1cc(-c2ccc(OCc3ccccc3Oc3ccccc3)nc2)on1` [Example 9, 5-(6-((2-phenoxybenzyl)oxy)pyridin-3-yl)isoxazol-3-ol], the EC50 stood at 180 nM.
For `CC(C)Sc1ncccc1COc1ccc(-c2cc(O)no2)cc1` [Example 15, 5-(4-((2-(isopropylthio)pyridin-3-yl)methoxy)phenyl)isoxazol-3-ol], the EC50 is 70 nM.
Next, `Oc1cc(-c2cc(F)c(OCc3ccccc3Oc3ccccc3)c(F)c2)on1` [Example 26, 5-(3,5-difluoro-4-((2-phenoxybenzyl)oxy)phenyl)isoxazol-3-ol]: 300 nM.
With `Cc1oc(-c2ccccc2)nc1CCOc1ccc(-c2cc(O)no2)cc1` [Example 33, 5-(4-(2-(5-methyl-2-phenyl-1,3-oxazol-4-yl)ethoxy)phenyl)isoxazol-3-ol] the figure was 620 nM; with `CCOc1cccc(OCCc2ccc(-c3cc(O)no3)cc2)c1` [Example 36, 5-(4-(2-(3-ethoxyphenoxy)ethyl)phenyl)isoxazol-3-ol], 100 nM.
Next, `Oc1cc(-c2ccc(OCCc3cccc(Oc4ccccc4)c3)cc2)on1` [Example 38]: 250 nM.
For the compound `CC(C)Nc1cccc(CCOc2ccc(-c3cc(O)no3)cc2)c1` [Example 41], the EC50 is 150 nM.
Next, `COCc1cccc(CCOc2ccc(-c3cc(O)no3)cc2)c1` [Example 43, 5-(4-(2-(3-(methoxymethyl)phenyl)ethoxy)phenyl)isoxazol-3-ol]: 280 nM; `Oc1cc(-c2ccc(COc3cccc(Oc4ccccc4)c3)cc2)on1` [Example 45, 5-(4-((3-phenoxyphenoxy)methyl)phenyl)isoxazol-3-ol]: 170 nM.
